The test system of data set [1] is alpha-synuclein ubiquitination. The data set is described as follows: Alpha-synuclein ubiquitination in TgA53T mice (IP/WB, immunostaining co-localization). The data set is classed as in vivo, mouse. Conditions: midbrain extracts, 40 mg/kg compared to DMSO and 10 mg/kg. As for the experimental part:
Immunoprecipitation (IP). Mouse brain tissues were homogenized in 1×STEN buffer, and the soluble fraction was isolated as indicated above. The lysates were pre-cleaned with immobilized recombinant protein A/G agarose (Santa Crutz, sc-2003, Dallas, TX, USA) and centrifuged at 2500×g for 1 min at 4° C. The supernatant was recovered and quantified by protein assay, and a total of 300 μg protein was incubated overnight at 4° C. with primary anti-alpha-synuclein (1:200, Thermofisher, AHB0261) mouse antibodies or anti-ubiquitin (1:100) (Thermo Fisher, PA3-16717, Rockford, IL, USA) antibodies in the presence of sepharose G and an IgG control with primary antibodies. The immunoprecipitates were collected by centrifugation at 2500×g for 3 min at 4° C., washed 5× in PBS, with spins of 3 min, 2500×g using detergent-free buffer for the last washing step, and the proteins were eluted according to Pierce instructions (Pierce #20365, Rockford, IL, USA). […]
Immunohistochemistry was performed on the 20 μm thick brain sections for evaluation of ubiquitination of alpha-synuclein. […] The optic densitometry of co-localization of ubiquitin with alpha-synuclein was measured using Image J. Tyrosine hydroxylase (TH) is the limiting enzyme in DA synthesis, so probing for TH+ neurons will help to evaluate the status of DA producing neurons in the SN and their terminals in the striatum. […]

Data set [2] can be described thus: Pharmacokinetics in brain and serum of C57BL/6 mice (UHPLC-MS/MS). The class given is in vivo, mouse. To be noted: 10 mg/kg I.P. single dose. As for the experimental part: Pharmacokinetics Studies. […] Brain and serum samples were collected at 1, 2, 3, 4, 8 and 12 h (n=3 per time point). Animals injected with vehicle (DMSO) were used for background subtraction. Stock solution of the drug (1 mg/mL) and internal standards were prepared in methanol. Intermediate solutions used for the calibrators and control samples were serial-diluted in methanol/water (1:1). Preparation of the calibration curve standards and quality samples (QC) were performed by mixing the intermediate dilutions in blank samples (brain homogenates, serum). […] Serum and brain samples were stored at −80° C. and then thawed to room temperature prior to preparation. The brains were homogenized in MilliQ water (1 mg brain: 10 μL water). Proteins were precipitated in both brain and serum samples by mixing 25 μL aqueous sample with 75 μL internal standard working solution. The mixture was centrifuged at 12,300 g for 5 min. Thereafter, 75 μL of each supernatant and 25 μL of MilliQ water were pipetted into a 96-well PCR plate (Fisher Scientific, Dawsonville, GA,USA).
Briefly, the UHPLC-MS/MS system included an Elute HTG binary gradient UHPLC pump, an Elute column oven and an EVOQ Elite triple quadrupole mass spectrometer (all from Bruker Daltonik GmbH, Bremen, Germany) equipped with an electrospray ionization (ESI) source operating in a positive mode. The samples were injected by use of a PAL auto sampler (CTC Analytics, Zwingen, Switzerland) equipped with a 10-μL sample loop; the samples were kept in a PAL stack cooler for 6 microtiter plates and operating at +6° C. The system was controlled by a Compass 2.0/HyStar 4.0 software (Bruker); the compound screening and quantitation was performed by a TASQ 2.2 data acquisition and processing software (Bruker). The mass spectrometer was supplied by nitrogen and air generated by a Genius 3045 nitrogen/air generator (Peak Scientific Instruments, Inchinnan, Scotland, UK). The ESI parameters were as follows: probe gas flow 50, nebulizer gas flow 60, probe temperature +400° C., cone gas flow 20, cone temperature +350° C., CID gas Ar 1.5 mTorr. The mass spectra were scanned in the MRM mode to find the optimal collision energies for the test compounds and their respective precursor ions.
For chromatographic separation, an YMC-Ultra HT Hydrosphere C18 column (2.0×100 mm, 2 μm particle size) and an YMC-Hydrosphere 2.1×5 mm guard column (YMC Co. Ltd., Kyoto, Japan) were used. The mobile phase A was 10 mM ammonium formate, pH 4.3, in water; the mobile phase B was 10 mM ammonium formate, pH 4.3, in 10% water, 50% acetonitrile and 40% isopropyl alcohol. The mobile phase gradient was as follows (min—A/B%): 0 min—50/50, 0.5 min—50/50, 2.0 min—20/80, 3 min—20/80, 3.1 min—50/50, 4.5 min—50/50. The flow rate was 450 μL/min, and the column temperature was set at 50° C. The sample injection volume was 10 μL.

Broadly, the AUC is concentration integrated over time. As usually defined, the Tmax is the time at which the peak concentration occurs. Consider `Fc1ccc2nccc(OCc3ccccc3)c2c1` [4-(Benzyloxy)-6-fluoroquinoline], for which the “alpha-synuclein ubiquitination by immunoprecipitation and WB” value in data set [1] is recorded as “increased ubiquitination”. Moreover, the Brain/serum ratio in data set [2] (10 mg/kg) was determined as 28.0%. In data set [2] (brain), the AUC worked out at 0.1643 µM·h and the “T1/2 (elimination)” value came to 2.32 h. Also, in data set [2] (serum), the AUC was determined as 0.5994 µM·h, the “T1/2 (elimination)” value is listed as 1.84 h and the Tmax is reported as 1 h.

(Values after US20240092800A1, “USP13 INHIBITORS AND METHODS OF USE THEREOF” (GEORGETOWN UNIVERSITY, priority 2021, published 2024).)
